Data on 4 molecules can be found in US6340686B1, “Thienopyrimidine compounds, their production and use” (Takeda Chemical Industries, Ltd., priority 1999, dated 2002).

The test system of one series is plasma LH. The experiment in a line: Suppression of plasma LH in castrated monkeys. The series is classed as in vivo, cynomolgus monkeys (Macaca fascicularis). As to conditions: castrated male cynomolgus monkeys. As for the experimental part: The Example compound No. 2 was orally administered to castrated male cynomolgus monkeys (Macaca fascicularis), and plasma LH was quantified. The male cynomolgus monkeys, used at 4 years 9 months to 6 years 3 months of age at time of experimentation, had been castrated more than 3 months prior to the examination. Test animals [n=3] were given 30 mg/kg (3 ml/kg) of the compound suspended in 0.5% methyl cellulose at a final concentration of 1% by oral administration, and control animals [n=2] were given 3 ml/kg of the 0.5% methyl cellulose dispersant alone by oral administration. At 24 hours and immediately before administration and at 2, 4, 6, 8, 24, and 48 hours after administration, blood was collected for heparinized plasma samples via the femoral vein and immediately stored under freezing conditions.
Plasma LH concentrations were determined by a bioassay using mouse testicular cells. The testicular cells were collected from male BALB/c mice (8 to 9 weeks of age) and washed three times with 1 ml of Dulbecco's modified Eagle medium. (DMEM-H) containing 20 mM HEPES and 0.2% BSA per testis. After incubation at 37° C. for 1 hour, the cells were passed through a nylon mesh filter (70 μm) and dispensed to test tubes at 8×10^5 cells/tube. After the cells were washed twice with 0.4 ml of DMEM-H, 0.4 ml of a DMEM-H solution containing either equine LH (Sigma Company), as the standard LH, or monkey plasma, previously diluted up to 300 fold, as the test sample, was added, followed by a reaction at 37° C. for 2 hours. The testosterone concentration in the culture supernatant was determined by a radioimmunoassay (CIS Diagnostics Company), and the LH concentration in the test monkey plasma was calculated from the standard curve for the standard equine LH.
The results are given together in FIG. 1. […]

The target of another series is T1, human GnRH receptor (Homo sapiens, UniProt P30968).
T1 construct: expressed in transfected cells; host or cells: CHO (Chinese hamster ovary) cells
T1 sequence (P30968 1-328): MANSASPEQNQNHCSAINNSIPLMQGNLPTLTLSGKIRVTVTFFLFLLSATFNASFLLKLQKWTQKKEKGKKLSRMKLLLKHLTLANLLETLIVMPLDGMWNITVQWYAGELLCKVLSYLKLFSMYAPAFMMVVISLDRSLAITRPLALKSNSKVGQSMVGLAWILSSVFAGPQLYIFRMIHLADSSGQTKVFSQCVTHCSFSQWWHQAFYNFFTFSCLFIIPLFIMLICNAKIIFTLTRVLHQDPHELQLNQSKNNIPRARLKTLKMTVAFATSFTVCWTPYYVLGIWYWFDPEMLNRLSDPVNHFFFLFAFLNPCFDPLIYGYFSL
As to the kind of experiment: 125I-leuprorelin binding inhibition, CHO cell membrane fraction containing human GnRH receptor. As to conditions: 25° C. for 60 minutes, Hill plot.

Series [1] deals with T2, GnRH receptors (rat pituitary anterior lobe membrane fraction) (Rattus norvegicus, UniProt P30969).
T2 construct: Anterior lobes of the pituitary glands were isolated from forty Wistar rats; from tissue; host or cells: anterior lobes of pituitary glands of male Wistar rats
T2 sequence (P30969 1-327): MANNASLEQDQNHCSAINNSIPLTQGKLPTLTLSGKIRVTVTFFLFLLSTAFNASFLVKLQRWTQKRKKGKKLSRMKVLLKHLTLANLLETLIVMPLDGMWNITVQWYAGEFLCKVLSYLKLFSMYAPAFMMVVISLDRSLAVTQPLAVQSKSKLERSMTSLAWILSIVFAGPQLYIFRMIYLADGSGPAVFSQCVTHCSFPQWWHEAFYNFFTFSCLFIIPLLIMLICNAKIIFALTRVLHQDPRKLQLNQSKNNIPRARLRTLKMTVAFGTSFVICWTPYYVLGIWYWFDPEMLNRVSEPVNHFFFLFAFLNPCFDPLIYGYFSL
The experiment in a line: 125I-leuprorelin binding inhibition, rat pituitary anterior lobe membrane fraction. As for the experimental part:
(1) Preparation of ^125I-leuprorelin To a tube containing 10 μl of a 3×10^−4M aqueous solution of leuprorelin and 10 μl of 0.01 mg/ml lactoperoxidase, 10 μl (37MBq) of a solution of Na^125I was added. After stirring, 10 μl of 0.001% H2O2 was added, and a reaction was carried out at room temperature for 20 minutes. By adding 700 μl of a 0.05% TFA (trifluoroacetic acid) solution, the reaction was stopped, followed by purification by reversed-phase HPLC. The HPLC conditions used are shown below. ^125I-leuprorelin was eluted at a retention time of 26 to 27 minutes. […] To determine maximum binding quantity, a reaction mixture of 2 μl of 60% DMSO and 10 μl of 38 nM ^125I-leuprorelin was prepared. […] After this filtration, the radioactivity of ^125I-leuprorelin remaining on the filter paper was measured with a γ-counter. The expression (TB-SB)/(TB-NSB)×100 (where SB=radioactivity with the compound added, TB=maximum bound radioactivity, NSB=nonspecifically bound radioactivity) was calculated to find the binding inhibition rate (%) of each test compound. […]

Bounds are passed on as bounds.

Procedure for human GnRH receptor: To the cell pellet, 10 ml of a cell homogenate buffer (10 mM NaHCO3, 5 mM EDTA, pH 7.5) was added, followed by homogenization using the Polytron homogenizer. […] This precipitate was suspended in 2 ml of an assay buffer and centrifuged at 100,000×g for 1 hour. The membrane fraction recovered as a precipitate was again suspended in 20 ml of the assay buffer, dispensed, and stored at −80° C. before use upon thawing. […] To determine maximum binding quantity, a reaction mixture of 2 μl of 60% DMSO and 10 μl of 38 nM ^125I-leuprorelin was prepared. […] Where the membrane fraction of the CHO with human GnRH receptors expressed was used, the reaction was carried out at 25° C. for 60 minutes. After each reaction, the reaction mixture was aspirated and filtered through a polyethyleneimine-treated Whatman glass filter (GF-F). After this filtration, the radioactivity of ^125I-leuprorelin remaining on the filter paper was measured with a γ-counter. The expression (TB-SB)/(TB-NSB)×100 (where SB=radioactivity with the compound added, TB=maximum bound radioactivity, NSB=nonspecifically bound radioactivity) was calculated to find the binding inhibition rate (%) of each test compound. Furthermore, the inhibition rate was determined by varying the concentration of the test substance and the 50% inhibitory concentration (IC50 value) of the compound was calculated from Hill plot.

In the case of `CONC(=O)Nc1ccc(-c2sc3c(c2CN(C)Cc2ccccc2)c(=O)n(-c2ccccc2)c(=O)n3Cc2c(F)cccc2F)cc1.Cl` [Ex. Compd. No. 2, 5-(N-Benzyl-N-methylaminomethyl)-1-(2,6-difluorobenzyl)-6-[4-(3-methoxyureido)phenyl]-3-phenylthieno[2,3-d]pyrimidine-2,4(1H,3H)-dione hydrochloride], in the series on plasma LH (30 mg/kg oral in 0.5% methyl cellulose, by 24 hours after administration), the “plasma LH concentration, percentage of the baseline LH concentration immediately before administration” value is listed as not above 20%. The “plasma LH concentration at 48 hours after administration” value in the series with plasma LH (30 mg/kg oral, 48 hours after administration) was “re-elevation of the plasma LH concentration was noted”. For the same molecule, in the series on plasma LH (administered orally, 30 mg/kg), the “effect on blood LH concentration” value is “significant depressive effect on blood LH concentration”.
The term IC50 denotes the midpoint of a concentration-inhibition curve. Broadly, the inhibition is the drop in the measured response relative to a control, in per cent. Turning to `CONC(=O)Nc1ccc(-c2sc3c(c2CN2Cc4ccccc4C2)c(=O)n(-c2ccccc2)c(=O)n3Cc2c(F)cccc2F)cc1` [Ex. Compd. No. 4-2], the IC50 is 0.0002 µM at human GnRH receptor and 0.5 µM in series [1] (125I-leuprorelin binding, calculated from Hill plot). In series [1] (read-out: binding inhibition rate (%) Rat (1 μM), 1 μM compound, 125I-leuprorelin, 4° C. for 90 minutes), the inhibition at 1 µM amounted to 64%.
Broadly, the melting point is the temperature, or range, at which the solid turns liquid. Consider `CN(Cc1ccccc1)Cc1c(-c2ccc(NC(=O)NO)cc2)sc2c1c(=O)n(-c1ccccc1)c(=O)n2Cc1c(F)cccc1F` [Example 5, 5-(N-Benzyl-N-methylaminomethyl)-1-(2,6-difluorobenzyl)-6-[4-(3-hydroxyureido)phenyl]-3-phenylthieno[2,3-d]pyrimidine-2,4(1H,3H)-dione], for which the melting point fell in the range of 164 to 165 °C.
Same read-out and setting: next, `CN(Cc1ccccc1)Cc1c(-c2ccc(NC(=O)NCCO)cc2)sc2c1c(=O)n(-c1ccccc1)c(=O)n2Cc1c(F)cccc1F` [Example 7, 5-(N-Benzyl-N-methylaminomethyl)-1-(2,6-difluorobenzyl)-6-[4-[3-(2-hydroxyethyl)ureido]phenyl]-3-phenylthieno[2,3-d]pyrimidine-2,4(1H,3H)-dione]: 220 to 222 °C.
